Where two headings read alike, the source gives them in different places. Square brackets hold non-standard residues; d marks the D form. Peptide text beside a SMILES is read from it. Dmt = Cc1cc(O)cc(C)c1C[C@H](N)C(=O)O; Tle = CC(C)(C)[C@H](N)C(=O)O

For the series the following is noted: CE-UV 200 nm; for BenchTop Obtained Concentration, Mean ± SD / BenchTop Obtained Concentration, %: after 6 h at room temperature; for BenchTop Obtained Concentration, Mean ± SD: ACN/0.1% TFA extraction; for BenchTop Obtained Concentration, Mean ± SD / Freeze and Thaw Obtained Concentration, Mean ± SD / Short Term Obtained Concentration, Mean ± SD: mean ± SD for five replicates; for BenchTop Obtained Concentration, % / Freeze and Thaw Obtained Concentration, % / Short Term Obtained Concentration, %: % of spiked concentration, five replicates; for Freeze and Thaw Obtained Concentration, % / Freeze and Thaw Obtained Concentration, Mean ± SD: after three freeze and thaw cycles at −20 °C; for Short Term Obtained Concentration, % / Short Term Obtained Concentration, Mean ± SD: at −25 °C for 30 days. The protocol: To ensure the applicability of the method for bioanalytical studies, stability tests were conducted under various storage and handling conditions.
The stock solutions of PK20 and [Ile9]PK20 compounds at a concentration of 10,000 ng/mL were prepared by dissolving the appropriate amounts of the substances in a 25 mM phosphate buffer at pH 2.5. Calibration solutions at specific concentrations were prepared on their basis. All solutions were stored at −15 °C. […] Calibration solutions at concentrations of 10, 50, 100, 500, 1000, and 5000 ng/mL were prepared in both water and serum by adding appropriate volumes of the stock solutions to serum samples free of the tested analytes.
To a 100 µL serum sample, 200 µL of acetonitrile (ACN) containing 0.1% trifluoroacetic acid (TFA) was added then immediately mixed by vortexing and centrifuged at 20,000× g for 4 min. The resulting supernatant was filtered using an ultrafiltration centrifuge (MWCO 30,000; Microcon YM-30, Millipore Corporation, Bradford, MA, USA) and then lyophilized. The dry residue was dissolved in 100 µL of deionized water and introduced into the capillary. The extraction procedure for PK20 and [Ile9]PK20 compounds was performed for three concentration ranges, namely 20 ng/mL, 500 ng/mL, and 5000 ng/mL.
Samples were introduced into the system hydrodynamically at a pressure of 2 psi for 6 s. Electrophoresis was performed at a voltage of 10 kV (normal polarity, anode on the inlet side of the capillary) at a temperature of 25 °C. Between subsequent analyses, the capillary was rinsed with water for 2 min and with BGE for 3 min. After each series of analyses, the working buffer was replaced to ensure repeatable separations.

`CC[C@H](C)[C@H](NC(=O)[C@H](Cc1ccccc1)NC(=O)[C@@H]1CCCN1C(=O)[C@H](CCCCN)NC(=O)[C@H](CCCCN)NC(=O)[C@H](Cc1ccccc1)NC(=O)[C@H](Cc1ccccc1)NC(=O)[C@@H](CCCCN)NC(=O)[C@@H](N)Cc1c(C)cc(O)cc1C)C(=O)N[C@@H](CC(C)C)C(=O)O` [[Ile9]PK20, H-Dmt-D-Lys-Phe-Phe-Lys-Lys-Pro-Phe-Ile-Leu-OH] (H-[Dmt][dK]FFKKPFIL-OH): where the note is “spiked 50 ng/mL in serum”, the “BenchTop Obtained Concentration, Mean ± SD” value stood at 24.46 ± 1.1 ng/mL; the “BenchTop Obtained Concentration, %” value is listed as 48.92%; the “Freeze and Thaw Obtained Concentration, %” value came to 25.44%; the “Freeze and Thaw Obtained Concentration, Mean ± SD” value was 12.72 ± 1.4 ng/mL. For the same compound, for the setting “spiked 50 ng/mL in serum”, the “Short Term Obtained Concentration, %” value is recorded as 97.70% and the “Short Term Obtained Concentration, Mean ± SD” value was 48.85 ± 1.2 ng/mL. For the same compound, where the note is “spiked 500 ng/mL in serum”, the “BenchTop Obtained Concentration, Mean ± SD” value is listed as 246.15 ± 1.0 ng/mL; the “BenchTop Obtained Concentration, %” value came to 49.23%; the “Freeze and Thaw Obtained Concentration, %” value is 25.51%; the “Freeze and Thaw Obtained Concentration, Mean ± SD” value is 127.53 ± 1.2 ng/mL. Also, for the setting “spiked 500 ng/mL in serum”, the “Short Term Obtained Concentration, %” value came out at 99.56% and the “Short Term Obtained Concentration, Mean ± SD” value came to 497.80 ± 1.1 ng/mL.

`Cc1cc(O)cc(C)c1C[C@H](N)C(=O)N[C@H](CCCCN)C(=O)N[C@@H](Cc1ccccc1)C(=O)N[C@@H](Cc1ccccc1)C(=O)N[C@@H](CCCCN)C(=O)N[C@@H](CCCCN)C(=O)N1CCC[C@H]1C(=O)N[C@@H](Cc1ccccc1)C(=O)N[C@H](C(=O)N[C@@H](CC(C)C)C(=O)O)C(C)(C)C` [PK20, H-Dmt-D-Lys-Phe-Phe-Lys-Lys-Pro-Phe-Tle-Leu-OH] (H-[Dmt][dK]FFKKPF[Tle]L-OH): where the note is “spiked 50 ng/mL in serum”, the “BenchTop Obtained Concentration, Mean ± SD” value came out at 23.92 ± 1.2 ng/mL; the “BenchTop Obtained Concentration, %” value is reported as 47.84%; the “Freeze and Thaw Obtained Concentration, %” value was found to be 24.10%; the “Freeze and Thaw Obtained Concentration, Mean ± SD” value was 12.05 ± 1.5 ng/mL. Besides, where the note is “spiked 50 ng/mL in serum”, the “Short Term Obtained Concentration, %” value is 95.04% and the “Short Term Obtained Concentration, Mean ± SD” value is recorded as 47.52 ± 1.4 ng/mL. Moreover, under “spiked 500 ng/mL in serum”, the “BenchTop Obtained Concentration, Mean ± SD” value was 240.53 ± 0.9 ng/mL; the “BenchTop Obtained Concentration, %” value was found to be 48.11%; the “Freeze and Thaw Obtained Concentration, %” value is given as 25.24%; the “Freeze and Thaw Obtained Concentration, Mean ± SD” value came to 126.20 ± 0.7 ng/mL. Besides, under “spiked 500 ng/mL in serum”, the “Short Term Obtained Concentration, %” value is 99.12% and the “Short Term Obtained Concentration, Mean ± SD” value is listed as 495.58 ± 1.1 ng/mL.

The values are drawn from PMC12609530, “Capillary Electrophoresis as a Useful Tool to Separate Isomeric Opioid–Neurotensin Hybrid Peptides” (Molecules, 2025).
